These results are taken from patent US20080254081A1, “Moist Wipe and Method of Making Same” (GEORGIA-PACIFIC CONSUMER PRODUCTS LP, priority 2002, published 2008).

This test has as its system test microbes. Put plainly: Zone of Inhibition Test, antimicrobial efficacy overall. It is filed as cell-based. The settings on record: benzalkonium chloride in imbuement. The text has this: Each fabric was placed in a commercially prepared imbuement containing benzalkonium chloride as the functional cationic additive (an antimicrobial agent).
All test results are the average of testing three batches of sample moist wipes. […] Therefore, all of these examples killed the test microbes when benzalkonium chloride was at the measured concentration in solution in the lotion (Table V). The difference (Example 10 versus Example 11) is when comparing the area around the circular piece of test wet wipe. As the benzalkonium chloride (from the imbuement) diffuses away from the test disk, the concentration of benzalkonium chloride decreases with increasing distance from the test disk. Each test microbe has a different minimum inhibitory concentration (MIC) for benzalkonium chloride to effectively kill that microbe. Therefore, if the concentration of benzalkonium chloride is above the MIC, it is observed as a visible zone where the growth of that test microbe has been inhibited. For this reason, some test microbes show no additional zone around the disk (code 0 in Table V), some show a partial zone around the disk (code 1), some show a small inhibition zone (code 2), while other test microbes show a larger inhibition zone (code 3). Therefore, comparisons among example wet wipes can only be made while comparing the same test microbe.

For the substance benzalkonium chloride, the “concentration remaining in solution shown to be sufficient for antibacterial efficacy” value came to 0.029%.
